Reference: patent US20190055231A1, “BACE1 INHIBITORS” (Hoffmann-La Roche Inc., priority 2016, published 2019)

Key:
[1] = test system: Aβ40 in brain of wild-type mice; assay: Mouse acute in vivo model (inhibition of Aβ40 in brain of wild-type mice); conditions: 4 h post dose; for Brain Aβ-lowering 30 mg/kg: single p.o. dose 30 mg/kg; for Brain Aβ-lowering 3 mg/kg: single p.o. dose 3 mg/kg; for Brain Aβ-lowering 10 mg/kg: single p.o. dose 10 mg/kg
Procedure: Mouse Acute In Vivo Model (Inhibition of Aβ40 in Brain of Wild-Type Mice)
Single Dose Efficacy in Mice
The mouse single dose efficacy was measured in brain homogenate from C57Bl/6J wildtype mice after DEA extraction as described in H. Hilpert et al., J. Med. Chem. 2013, 56, 3980-3995 (dx.doi.org/10.1021/jm400225m).
Aβ 40 concentration was determined after solid phase extraction as described above and following a modified protocol from Perkin-Elmer with a commercially available antibody against the N-terminal part of rat Aβ (252Q6, Invitrogen cat. No. AMB0062) and an in-house C-terminal specific anti-Aβ40 antibody (BAP-24, Brockhaus M. et al., J. Neuroreport, 1998, 9:1481-1486) bound to acceptor beads (PerkinElmer, Cat. 6772002). 20 μl analyte per well (reconstituted extracts or standard) were loaded to a White Optiplate-96 (Perkin-Elmer, Cat#6005290). Then, a mixture of biotinylated BAP24 antibody (1:2000 diluted at approximately 1 nM final concentration) and antibody 252Q6 bound to AlphaLISA acceptor beads (Perkin-Elmer cat. No. 6772002 (1:100 diluted, 10 ug/mL final concentration) in 1× AlphaLISA buffer (Perkin-Elmer, AL000F) was added. After 1 hour room temperature incubation in the dark, 20 uL of a streptavidin coated donor beads dilution (40 μg/mL) were added and incubated for 30 minutes in the dark. Light emission at 615 nm was recorded using an EnVision AlphaScreen Reader (Perkin-Elmer). Levels of Aβ40 were calculated as percentage of the baseline samples from non-treated animals.
Aβ40 lowering was determined after oral administration in wild-type mice (C57Bl/6J mice, n=3-4) 4 h post dosing. Wild-type mice were used as they have a normal physiological level of APP expression and are thus expected to provide a better physiological model for Aβ-peptide production than APP-transgenic organisms. In vivo efficacy is a key factor for appropriate drug candidates, being more relevant than in vitro activities.

hERG channel = hERG channel (Homo sapiens, UniProt Q12809); assay: hERG IC20 assay; type: cell-based; conditions: for IC20: human, hERG IC20 assay
From the text: The methods to determine the hERG IC20 values was described in Industrializing electrophysiology: HT automated patch clamp on SyncroPatch® 96 using instant frozen cells. Polonchuk L., Methods Mol Biol. 2014; 1183:81-92. (doi: 10.1007/978-1-4939-1096-0_5.) PMID:25023303
QT prolongation is a cardiovascular risk caused by drug candidates which inhibit the hERG channel (human ether a go-go). A sufficient safety margin between the hERG IC20 value and the free plasma concentration necessary to achieve the envisaged thereapeutic effects is desired (ICH. The nonclinical evaluation of the potential for delayed ventricular repolarization (QT interval prolongation) by human pharmaceuticals (S7B), issued as CPMP/ICH/423/02, adopted by CHMP in May 2005 (http://www.ich.org/cache/compo/276-254-1.html; Redfern W S, Carlsson L, Davis A S, Lynch W G, MacKenzie I, Palethorpe S, Siegl P K, Strang I, Sullivan A T, Wallis R, Camm A J, Hammond T G. Relationships between preclinical cardiac electrophysiology, clinical QT interval prolongation and torsade de pointes for a broad range of drugs: evidence for a provisional safety margin in drug development. Cardiovasc Res. 2003 Apr. 1; 58(1):32-45.)). Reducing the activity against efflux transporters expressed at the blood-brain-barrier such as P-glycoprotein P-gp, might result in reduction of the free plasma concentration by optimizing brain penetration.

Mouse P-gp = Mouse P-gp (Mus musculus, UniProt P21447); assay: P-gp transport assay (mouse); type: in vitro ADME; conditions: efflux ratio
From the text: (§1) P-Gp Transport Assay (Human and Mouse) (P-Gp Assay)
(§2) In the assay of the P-gp efflux ratio ER as described hereinabove, a compound with ER<2.5 is regarded most suitable. In addition, compounds with low hERG channel binding are suitable as well.

Human P-gp = Human P-gp (Homo sapiens, UniProt P08183); assay: P-gp transport assay (human); type: in vitro ADME; conditions: efflux ratio
From the text: as §1, §2

BACE1 [2] = molecular target: T1, BACE1 (Homo sapiens, UniProt P56817); assay: Cellular Aβ-lowering assay (Abeta 40 AlphaLISA, HEK293 APP cells); type: cell-based; parameters: endogenous in cells; host or cells: HEK293 APP cells
Procedure: Cellular Aβ-Lowering Assay:
The Abeta 40 AlphaLISA Assay can be used. The HEK293 APP cells were seeded in 96 well Microtiter plates in cell culture medium (Iscove's, plus 10% (v/v) fetal bovine serum, penicillin/streptomycin) to about 80% confluency and the compounds were added at a 3× concentration in ⅓ volume of culture medium (final DMSO concentration was kept at 1% v/v). After 18-20 hrs incubation at 37° C. and 5% CO2 in a humidified incubator, the culture supernatants were harvested for the determination of AP 40 concentrations using Perkin-Elmer Human Amyloid beta 1-40 (high specificity) Kit (Cat#AL275C).
In a Perkin-Elmer White Optiplate-384 (Cat#6007290), 2 ul culture supernatants were combined with 2 μl of a 10× AlphaLISA Anti-hAP Acceptor beads+Biotinylated Antibody Anti-Aβ 1-40 Mix (50 μg/mL/5 nM). After 1 hour room temperature incubation, 16 μl of a 1.25× preparation of Streptavidin (SA) Donor beads (25 μg/mL) were added and incubated for 30 minutes in the Dark. Light Emission at 615 nm was then recorded using EnVision-Alpha Reader. Levels of AP 40 in the culture supernatants were calculated as percentage of maximum signal (cells treated with 1% DMSO without inhibitor). The IC50 value were calculated using the Excel XLfit software.
Cellular Aβ-Lowering Assay (Cell-Based Assay)
(§3) The determination of BACE1 activity can be either measured by using an enzymatic cell-free fluorescence assay (BACE1 cell free, table 2) or by a whole cell assay using HEK293 APP cells (Cellular Aβ-lowering, table 2). Both assays are suitable to determine BACE1 inhibition.

BACE1 [3] = molecular target: T1, BACE1; assay: BACE1 cell-free assay (BACE1 enzyme assay); type: biochemical
From the text: BACE1 Cell-Free Assay (BACE1 Enzyme Assay)
as §3

BACE2 = molecular target: T2, BACE2 (Homo sapiens, UniProt Q9Y5Z0); assay: BACE2 cell-free assay (BACE2 enzyme assay); type: biochemical; conditions: BACE2 IC50 divided by BACE1 IC50, cell free assays
T2 sequence (Q9Y5Z0 63-518): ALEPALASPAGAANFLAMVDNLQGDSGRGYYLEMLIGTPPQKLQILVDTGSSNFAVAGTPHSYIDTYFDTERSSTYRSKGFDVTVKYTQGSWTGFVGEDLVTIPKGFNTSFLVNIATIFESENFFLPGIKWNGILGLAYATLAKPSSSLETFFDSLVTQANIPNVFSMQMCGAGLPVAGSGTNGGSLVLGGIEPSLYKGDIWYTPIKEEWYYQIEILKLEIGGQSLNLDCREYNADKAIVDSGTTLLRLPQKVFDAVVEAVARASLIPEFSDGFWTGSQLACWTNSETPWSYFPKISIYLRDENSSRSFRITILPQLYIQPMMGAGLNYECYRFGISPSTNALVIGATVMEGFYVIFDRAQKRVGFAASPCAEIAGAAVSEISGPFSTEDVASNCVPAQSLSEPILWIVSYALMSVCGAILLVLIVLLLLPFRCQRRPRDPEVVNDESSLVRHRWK
From the text: BACE2 Cell-Free Assay (BACE2 Enzyme Assay)
Selectivity versus related targets is important in terms of safety of a drug candidate. BACE2 is a close homolog of BACE1. BACE2 was recently reported to play a crucial role in pigmentation of the skin by processing pigment cell-specific melanocyte protein (PMEL). (Proc Natl Acad Sci USA. 2013 Jun. 25; 110(26):10658-63. doi: 10.1073/pnas.1220748110. Epub 2013 Jun. 10). It is believed that PMEL contributes in melanogenesis. Therefore, selectivity versus BACE2 is advantageous when it comes to pigmentation of the skin. The selectivity ratio of BACE2/BACE1 IC50 was calculated by dividing the BACE2 IC50 value by the BACE1 IC50 value determined each in the cell free assay. […] This implies a 3-fold improvement of example 1 compared to comparators 4 and 5.

[4] = HEK293 APP cells, Aβ40 in supernatant, read-out: BACE1 cell act. Aβ40 IC50

Sequence of Mouse P-gp (P21447 whole entry): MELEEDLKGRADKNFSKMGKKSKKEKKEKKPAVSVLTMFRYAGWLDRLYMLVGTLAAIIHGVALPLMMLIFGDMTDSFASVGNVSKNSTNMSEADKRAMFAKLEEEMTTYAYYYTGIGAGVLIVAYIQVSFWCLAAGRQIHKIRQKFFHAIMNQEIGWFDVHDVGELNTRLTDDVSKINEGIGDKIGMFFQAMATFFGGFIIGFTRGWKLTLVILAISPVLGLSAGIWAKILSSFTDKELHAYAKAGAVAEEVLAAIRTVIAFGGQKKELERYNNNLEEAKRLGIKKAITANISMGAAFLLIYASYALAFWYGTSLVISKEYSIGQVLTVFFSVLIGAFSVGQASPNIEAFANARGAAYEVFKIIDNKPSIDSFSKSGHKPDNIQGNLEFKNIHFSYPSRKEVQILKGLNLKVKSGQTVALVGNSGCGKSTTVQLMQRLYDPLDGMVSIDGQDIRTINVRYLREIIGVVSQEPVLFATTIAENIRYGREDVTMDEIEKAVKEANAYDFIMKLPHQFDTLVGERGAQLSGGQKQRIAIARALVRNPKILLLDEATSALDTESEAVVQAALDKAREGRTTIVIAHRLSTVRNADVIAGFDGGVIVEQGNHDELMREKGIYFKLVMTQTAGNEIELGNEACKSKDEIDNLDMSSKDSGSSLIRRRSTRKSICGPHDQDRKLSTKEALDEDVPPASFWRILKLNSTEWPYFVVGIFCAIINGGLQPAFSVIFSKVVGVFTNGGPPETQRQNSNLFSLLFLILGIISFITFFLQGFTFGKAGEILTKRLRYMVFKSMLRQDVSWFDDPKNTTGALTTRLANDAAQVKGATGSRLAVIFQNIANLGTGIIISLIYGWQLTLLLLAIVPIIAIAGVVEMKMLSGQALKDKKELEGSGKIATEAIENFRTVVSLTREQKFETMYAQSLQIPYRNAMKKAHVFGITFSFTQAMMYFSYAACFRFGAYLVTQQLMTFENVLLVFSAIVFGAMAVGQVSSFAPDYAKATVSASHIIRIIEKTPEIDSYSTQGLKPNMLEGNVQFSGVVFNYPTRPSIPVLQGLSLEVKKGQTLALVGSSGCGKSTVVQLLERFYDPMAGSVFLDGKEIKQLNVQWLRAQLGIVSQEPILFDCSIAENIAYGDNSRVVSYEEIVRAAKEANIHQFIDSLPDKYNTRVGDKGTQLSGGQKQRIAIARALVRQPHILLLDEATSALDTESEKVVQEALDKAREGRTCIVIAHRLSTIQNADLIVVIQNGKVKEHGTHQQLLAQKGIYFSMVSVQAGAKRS
T1 sequence (P56817 46-501): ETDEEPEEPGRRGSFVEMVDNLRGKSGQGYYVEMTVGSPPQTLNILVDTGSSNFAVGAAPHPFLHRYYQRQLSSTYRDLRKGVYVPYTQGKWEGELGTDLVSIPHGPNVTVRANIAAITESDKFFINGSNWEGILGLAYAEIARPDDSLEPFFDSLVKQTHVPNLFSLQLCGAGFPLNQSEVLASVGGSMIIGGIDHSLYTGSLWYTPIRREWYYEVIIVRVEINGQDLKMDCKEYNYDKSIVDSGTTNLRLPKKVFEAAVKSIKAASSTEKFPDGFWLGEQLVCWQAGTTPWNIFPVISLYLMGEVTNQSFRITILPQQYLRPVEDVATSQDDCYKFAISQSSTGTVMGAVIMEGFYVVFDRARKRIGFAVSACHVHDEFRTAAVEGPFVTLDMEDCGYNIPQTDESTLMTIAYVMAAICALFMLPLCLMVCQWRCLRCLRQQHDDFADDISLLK
Sequence of hERG channel (Q12809 whole entry): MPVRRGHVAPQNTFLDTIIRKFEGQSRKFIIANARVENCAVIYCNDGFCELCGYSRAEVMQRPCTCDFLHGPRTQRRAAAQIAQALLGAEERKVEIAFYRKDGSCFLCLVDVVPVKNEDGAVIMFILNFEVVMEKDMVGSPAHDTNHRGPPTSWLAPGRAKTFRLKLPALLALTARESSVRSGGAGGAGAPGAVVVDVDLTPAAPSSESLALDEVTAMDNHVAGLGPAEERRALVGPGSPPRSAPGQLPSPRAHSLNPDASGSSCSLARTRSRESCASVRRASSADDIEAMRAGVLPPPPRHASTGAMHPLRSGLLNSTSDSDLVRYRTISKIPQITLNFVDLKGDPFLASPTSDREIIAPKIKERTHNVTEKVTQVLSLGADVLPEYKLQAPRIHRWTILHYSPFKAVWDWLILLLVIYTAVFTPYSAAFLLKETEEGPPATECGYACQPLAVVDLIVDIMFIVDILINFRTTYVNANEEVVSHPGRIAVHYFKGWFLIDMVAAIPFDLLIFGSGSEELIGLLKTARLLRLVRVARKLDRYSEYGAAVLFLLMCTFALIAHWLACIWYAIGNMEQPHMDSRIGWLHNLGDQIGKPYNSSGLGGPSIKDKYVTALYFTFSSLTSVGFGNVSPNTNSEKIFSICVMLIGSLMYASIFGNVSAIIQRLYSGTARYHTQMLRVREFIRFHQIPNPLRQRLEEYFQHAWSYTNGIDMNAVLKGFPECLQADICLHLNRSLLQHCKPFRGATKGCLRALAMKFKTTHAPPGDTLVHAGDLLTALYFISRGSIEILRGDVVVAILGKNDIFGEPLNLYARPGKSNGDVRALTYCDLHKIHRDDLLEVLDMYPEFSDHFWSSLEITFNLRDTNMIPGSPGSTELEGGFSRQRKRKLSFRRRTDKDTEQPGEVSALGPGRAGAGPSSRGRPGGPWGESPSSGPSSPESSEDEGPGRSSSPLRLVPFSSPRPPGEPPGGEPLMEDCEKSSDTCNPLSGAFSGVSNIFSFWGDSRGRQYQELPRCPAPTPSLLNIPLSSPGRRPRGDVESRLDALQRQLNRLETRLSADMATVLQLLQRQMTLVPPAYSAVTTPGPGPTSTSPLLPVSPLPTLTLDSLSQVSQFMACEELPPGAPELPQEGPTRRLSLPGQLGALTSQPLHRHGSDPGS
Sequence of Human P-gp (P08183 whole entry): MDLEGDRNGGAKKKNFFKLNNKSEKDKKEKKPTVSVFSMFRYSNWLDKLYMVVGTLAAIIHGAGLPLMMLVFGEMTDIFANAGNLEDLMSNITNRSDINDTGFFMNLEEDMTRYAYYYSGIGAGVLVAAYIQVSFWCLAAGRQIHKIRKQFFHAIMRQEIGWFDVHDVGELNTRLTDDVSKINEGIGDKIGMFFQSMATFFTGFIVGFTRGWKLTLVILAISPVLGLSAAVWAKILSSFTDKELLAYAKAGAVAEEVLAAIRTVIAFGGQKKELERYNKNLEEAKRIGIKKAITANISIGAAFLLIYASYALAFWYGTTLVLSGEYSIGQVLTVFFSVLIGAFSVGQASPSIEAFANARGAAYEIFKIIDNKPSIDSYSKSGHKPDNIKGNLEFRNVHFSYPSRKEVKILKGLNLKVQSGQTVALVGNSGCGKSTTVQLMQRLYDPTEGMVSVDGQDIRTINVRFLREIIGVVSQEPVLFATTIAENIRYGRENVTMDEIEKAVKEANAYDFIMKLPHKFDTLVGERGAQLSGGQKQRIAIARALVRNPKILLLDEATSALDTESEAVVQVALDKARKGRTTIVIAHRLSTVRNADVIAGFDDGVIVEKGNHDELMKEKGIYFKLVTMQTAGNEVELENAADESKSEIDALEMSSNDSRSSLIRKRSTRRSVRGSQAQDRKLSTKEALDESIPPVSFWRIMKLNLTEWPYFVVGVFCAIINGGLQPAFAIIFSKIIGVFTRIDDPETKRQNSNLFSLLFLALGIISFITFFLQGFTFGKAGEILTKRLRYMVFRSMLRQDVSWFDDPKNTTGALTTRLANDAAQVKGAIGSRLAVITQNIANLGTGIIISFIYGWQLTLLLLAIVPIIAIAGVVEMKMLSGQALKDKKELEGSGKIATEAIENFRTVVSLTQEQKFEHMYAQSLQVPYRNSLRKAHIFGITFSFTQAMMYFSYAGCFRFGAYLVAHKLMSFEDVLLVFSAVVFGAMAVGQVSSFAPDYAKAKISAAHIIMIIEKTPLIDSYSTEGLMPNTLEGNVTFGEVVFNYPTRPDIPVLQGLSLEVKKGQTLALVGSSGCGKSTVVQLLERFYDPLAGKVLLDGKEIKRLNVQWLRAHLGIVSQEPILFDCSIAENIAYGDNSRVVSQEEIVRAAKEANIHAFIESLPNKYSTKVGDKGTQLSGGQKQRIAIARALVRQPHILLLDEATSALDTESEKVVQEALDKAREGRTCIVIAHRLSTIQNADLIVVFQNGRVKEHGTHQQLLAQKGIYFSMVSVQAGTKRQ

Row | Structure (SMILES) | Mouse P-gp ER (Mouse P-gp) | Human P-gp ER (Human P-gp) | IC50 (BACE1 [2]; [4]) [nM] | IC50 (BACE1 [3]) [nM] | BACE2/BACE1 IC50 ratio (BACE2) | IC50 (BACE1 [2]; read-out: cellular potency) [nM] | Brain Aβ-lowering 30 mg/kg [1] [%] | higher affinity to hERG than example 1 (hERG channel) [fold] | IC20 (hERG channel) [nM] | Brain Aβ-lowering 3 mg/kg [1] [%] | Brain Aβ-lowering 3 mg/kg ([1]; listed as comparator 5) [%] | Brain Aβ-lowering 10 mg/kg [1] [%] | IC20 (hERG channel; instant frozen cells (hERG channel, automated patch clamp)) [nM]
1 | C[C@]1(c2nc(NC(=O)c3ccc(C#N)cn3)ccc2F)N=C(N)O[C@@H](C(F)(F)F)[C@@H]1F [Comparator 7] | – | – | – | – | – | – | 70 | – | – | – | – | – | –
2 | C[C@]1(c2nc(NC(=O)c3ccc(C#N)cn3)ccc2F)N=C(N)O[C@H](C(F)(F)F)C1(F)F [Comparator 1, N-(6-((4R,6S)-2-Amino-5,5-difluoro-4-methyl-6-(trifluoromethyl)-5,6-dihydro-4H-1,3-oxazin-4-yl)-5-fluoropyridin-2-yl)-5-cyanopicolinamide] | 1.3 | 1.4 | 324 | 29 | 3.0 | – | 66 | – | – | 2 | – | 4 | –
3 | Cc1cc(C#N)cnc1C(=O)Nc1ccc(F)c([C@@]2(C)N=C(N)O[C@H](C(F)(F)F)C2(F)F)n1 [Comparator 2, N-(6-((4R,6S)-2-Amino-5,5-difluoro-4-methyl-6-(trifluoromethyl)-5,6-dihydro-4H-1,3-oxazin-4-yl)-5-fluoropyridin-2-yl)-5-cyano-3-methylpicolinamide] | 1.4 | – | 203 | 19 | 3.0 | – | – | – | – | 10 | – | 42 | –
4 | C[C@]1(c2nc(NC(=O)c3ccc(C#N)cn3)ccc2F)N=C(N)O[C@@H](C(F)(F)F)C1(F)F [Comparator 3, N-(6-((4R,6R)-2-Amino-5,5-difluoro-4-methyl-6-(trifluoromethyl)-5,6-dihydro-4H-1,3-oxazin-4-yl)-5-fluoropyridin-2-yl)-5-cyanopicolinamide] | – | – | 37400 | – | – | > 35000 | – | – | – | – | – | – | –

Continued, in another order:

Row | Mouse P-gp ER (Mouse P-gp) | Human P-gp ER (Human P-gp) | IC50 (BACE1 [2]; [4]) [nM] | IC50 (BACE1 [3]) [nM] | BACE2/BACE1 IC50 ratio (BACE2) | IC50 (BACE1 [2]; read-out: cellular potency) [nM] | Structure (SMILES) | Brain Aβ-lowering 30 mg/kg [1] [%] | higher affinity to hERG than example 1 (hERG channel) [fold] | IC20 (hERG channel) [nM] | Brain Aβ-lowering 3 mg/kg [1] [%] | Brain Aβ-lowering 3 mg/kg ([1]; listed as comparator 5) [%] | Brain Aβ-lowering 10 mg/kg [1] [%] | IC20 (hERG channel; instant frozen cells (hERG channel, automated patch clamp)) [nM]
5 | 8.1 | 3.3 | – | – | – | – | Cc1cc(C#N)cnc1C(=O)Nc1ccc(F)c([C@]2(C)C[C@@H](C(F)(F)F)OC(N)=N2)n1 [Comparator 5] | – | 5.3 | 440 | 7 | 7 | 70 | –
6 | – | – | 4 | 33 | – | – | C[C@@]1(c2nc(NC(=O)c3ccc(C#N)cn3)ccc2F)C[C@@H](C(F)(F)F)OC(N)=N1 [Comparator 4] | – | – | 40 | – | – | – | 40
